Values quoted from earlier work in patent US20190083000A1, “PERSONALIZED FOOD FOR DYSPHAGIA MANAGEMENT” (NESTEC S.A., priority 2016, published 2019).

Conditions: database Episuite 4.1

Compound | Volatility: Air/water partition coefficient log K [w/v] | Lipophilicity: Oil/Water partition coefficient log Kow [w/v]
2-Methylpropanal | −2.31 | 
CC(=O)C(C)=O [2,3-Butanedione] | −5.09 | −1.34
CCC(=O)C(C)=O [2,3-Pentanedione] | −4.97 | −0.85
CCC(C)C=O (stereo not drawn) [2-Methylbutanal] | −2.20 | 1.23
CC(C)CC=O [3-Methylbutanal] | −2.19 | 1.23
CC=O [Acetaldehyde] | −2.56 | −0.17
CSC [Dimethylsulfide] | −1.49 | 0.92
CCCC(=O)OCC [Ethylbutyrate] | −1.79 | 1.85
C=C(C)[C@H]1CC=C(C)CC1 [Limonene] | 0.12 | 4.38
CS [Methanethiol] | −0.97 | 0.78
COc1cc(C=O)ccc1O [Vanillin] | −8.47 | 1.05
